Experimental data from patent publication US8207172B2 (Bayer Intellectual Property GmbH, priority 2004, dated 2012).
Structures can show the parent of a compound that is named as a salt.

Assays:
[1] = tested on: A431 cells (human epidermoid carcinoma); assay: In vitro tumor cell proliferation assay (Cell Titer-Glo luminescent cell viability), A431; format: cell-based; conditions: A-431, 72 h, 72 hours of drug exposure, ATP luminescence readout, read-out: IC50, anti-proliferative activity (inhibition of cell proliferation)
Procedure, shortened: (§1)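 CellTiter-Glo luminescence (ATP content of metabolically active cells) after 72 h compound exposure at 37° C gave IC50s.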

[2] = tested on: BT474 (human breast carcinoma); assay: In vitro tumor cell proliferation assay (Cell Titer-Glo luminescent cell viability), BT474; format: cell-based; conditions: BT-474, 72 h, BT474 cells, 72 hours of drug exposure, ATP luminescence readout, read-out: IC50, anti-proliferative activity (inhibition of cell proliferation)
Procedure, shortened: as §1

| Structure (SMILES) | IC50 [1] | IC50 [2] |
| --- | --- | --- |
| CC(C)CCN1CCC(CCn2cc3c(n2)CCc2c-3sc3ncnc(Nc4ccc(OCc5cccc(F)c5)c(Cl)c4)c23)CC1 [Example 256, N-{3-chloro-4-[(3-fluorobenzyl)oxy]phenyl}-2-{2-[1-(3-methylbutyl)piperidin-4-yl]ethyl}-4,5-dihydro-2H-pyrimido[5′,4′:4,5]thieno[2,3-e]indazol-6-amine] | ≤ 5 µM | ≤ 1 µM |
| CCN1CCC(Cn2cc3c(n2)CCc2c-3sc3ncnc(Nc4ccc(OCc5cccc(F)c5)c(Cl)c4)c23)CC1 [Example 244, N-{3-chloro-4-[(3-fluorobenzyl)oxy]phenyl}-2-[(1-ethylpiperidin-4-yl)methyl]-4,5-dihydro-2H-pyrimido[5′,4′:4,5]thieno[2,3-e]indazol-6-amine] | ≤ 5 µM | ≤ 1 µM |
| Cc1ccc(Nc2ncnc3sc4c(c23)CCc2nn(CCN3CCN(C)CC3)cc2-4)cc1O [Example 329, 2-methyl-5-({2-[2-(4-methylpiperazin-1-yl)ethyl]-4,5-dihydro-2H-pyrimido[5′,4′:4,5]thieno[2,3-e]indazol-6-yl}amino)phenol] | ≤ 5 µM | ≤ 5 µM |
| CCN(CC)CC(=O)N1CCC(Cn2cc3c(n2)CCc2c-3sc3ncnc(Nc4ccc(OCc5cccc(F)c5)c(Cl)c4)c23)CC1 [Example 242, N-{3-chloro-4-[(3-fluorobenzyl)oxy]phenyl}-2-({1-[(diethylamino)acetyl]piperidin-4-yl}methyl)-4,5-dihydro-2H-pyrimido[5′,4′:4,5]thieno[2,3-e]indazol-6-amine trifluoroacetate] | ≤ 5 µM | ≤ 1 µM |
| OCCn1ncc2c1CCc1c-2sc2ncnc(Nc3ccc(OCc4ccccn4)c(Cl)c3)c12 [Example 100, 2-(6-{[3-chloro-4-(pyridin-2-ylmethoxy)phenyl]amino}-4,5-dihydro-2H-pyrimido[5′,4′:4,5]thieno[2,3-e]indazol-3-yl)ethanol] | ≤ 5 µM | ≤ 1 µM |
| CN1CCN(CCn2cc3c(n2)CCc2c-3sc3ncnc(Nc4ccc(OCc5ccccc5F)c(Cl)c4)c23)CC1 [Example 334, N-{3-chloro-4-[(2-fluorobenzyl)oxy]phenyl}-2-[2-(4-methylpiperazin-1-yl)ethyl]-4,5-dihydro-2H-pyrimido[5′,4′:4,5]thieno[2,3-e]indazol-6-amine] | ≤ 5 µM | ≤ 1 µM |
| Fc1ccc(Nc2ncnc3sc4c(c23)CCc2nn(CCNCCN3CCCC3)cc2-4)cc1Cl [Example 18, N-(3-chloro-4-fluorophenyl)-2-{2-[(2-pyrrolidin-1-ylethyl)amino]ethyl}-4,5-dihydro-2H-pyrimido[5′,4′:4,5]thieno[2,3-e]indazol-6-amine] | ≤ 50 µM | ≤ 50 µM |
| CCCn1cc2c(n1)CCc1c-2sc2ncnc(Nc3ccc(OCc4cccc(F)c4)c(Cl)c3)c12 [Example 130, N-{3-chloro-4-[(3-fluorobenzyl)oxy]phenyl}-2-propyl-4,5-dihydro-2H-pyrimido[5′,4′:4,5]thieno[2,3-e]indazol-6-amine trifluoroacetate] | ≤ 50 µM | ≤ 5 µM |
| O=C(Cn1ncc2c1CCc1c-2sc2ncnc(Nc3ccc(OCc4cccc(F)c4)c(Cl)c3)c12)N(CCO)CCO [Example 212, 2-[6-({3-chloro-4-[(3-fluorobenzyl)oxy]phenyl}amino)-4,5-dihydro-3H-pyrimido[5′,4′:4,5]thieno[2,3-e]indazol-3-yl]-N,N-bis(2-hydroxyethyl)acetamide] | ≤ 50 µM | ≤ 1 µM |
| Fc1ccc(Nc2ncnc3sc4c(c23)CCc2nn(CCN3CCN(Cc5ccncc5)CC3)cc2-4)cc1Cl [Example 14, N-(3-chloro-4-fluorophenyl)-2-{2-[4-(pyridin-4-ylmethyl)piperazin-1-yl]ethyl}-4,5-dihydro-2H-pyrimido[5′,4′:4,5]thieno[2,3-e]indazol-6-amine] | ≤ 5 µM | ≤ 5 µM |
| CN1CCC(CCn2cc3c(n2)CCc2c-3sc3ncnc(Nc4ccc(OCc5cccc(F)c5)c(Cl)c4)c23)CC1 [Example 255, N-{3-chloro-4-[(3-fluorobenzyl)oxy]phenyl}-2-[2-(1-methylpiperidin-4-yl)ethyl]-4,5-dihydro-2H-pyrimido[5′,4′:4,5]thieno[2,3-e]indazol-6-amine] | ≤ 5 µM | ≤ 1 µM |
| CN1CCN(CCn2cc3c(n2)CCc2c-3sc3ncnc(Nc4ccc(Oc5cccnc5)cc4)c23)CC1 [Example 340, 2-[2-(4-methylpiperazin-1-yl)ethyl]-N-[4-(pyridin-3-yloxy)phenyl]-4,5-dihydro-2H-pyrimido[5′,4′:4,5]thieno[2,3-e]indazol-6-amine] | ≤ 50 µM | ≤ 5 µM |
| CS(=O)(=O)OCCn1cc2c(n1)CCc1c-2sc2ncnc(Nc3ccc(OCc4ccccc4)c(Cl)c3)c12 [Example 125, 2-(6-{[4-(benzyloxy)-3-chlorophenyl]amino}-4,5-dihydro-2H-pyrimido[5′,4′:4,5]thieno[2,3-e]indazol-2-yl)ethyl methanesulfonate] | ≤ 50 µM | ≤ 1 µM |
| CC(C)(C)OC(=O)NCC(=O)OCCn1cc2c(n1)CCc1c-2sc2ncnc(Nc3ccc(OCc4cccc(F)c4)c(Cl)c3)c12 [Example 314, 2-[6-({3-chloro-4-[(3-fluorobenzyl)oxy]phenyl}amino)-4,5-dihydro-2H-pyrimido[5′,4′:4,5]thieno[2,3-e]indazol-2-yl]ethyl N-(tert-butoxycarbonyl)glycinate] | ≤ 5 µM | ≤ 1 µM |
| CN1CCN(CCCn2ncc3c2CCc2c-3sc3ncnc(Nc4ccc(OCc5cccc(F)c5)c(Cl)c4)c23)CC1 [Example 269, N-{3-chloro-4-[(3-fluorobenzyl)oxy]phenyl}-3-[3-(4-methylpiperazin-1-yl)propyl]-4,5-dihydro-3H-pyrimido[5′,4′:4,5]thieno[2,3-e]indazol-6-amine] | ≤ 5 µM | ≤ 1 µM |
| CCN(CCOC)CCn1cc2c(n1)CCc1c-2sc2ncnc(Nc3ccc(F)c(Cl)c3)c12 [Example 24, N-(3-chloro-4-fluorophenyl)-2-{2-[ethyl(2-methoxyethyl)amino]ethyl}-4,5-dihydro-2H-pyrimido[5′,4′:4,5]thieno[2,3-e]indazol-6-amine] | ≤ 5 µM | ≤ 5 µM |
| Cc1cccc(COc2ccc(Nc3ncnc4sc5c(c34)CCc3nn(CCN4CCOCC4)cc3-5)cc2Cl)n1 [Example 119, N-{3-chloro-4-[(6-methylpyridin-2-yl)methoxy]phenyl}-2-(2-morpholin-4-ylethyl)-4,5-dihydro-2H-pyrimido[5′,4′:4,5]thieno[2,3-e]indazol-6-amine] | ≤ 50 µM | ≤ 5 µM |
| COCCN(CCOC)CCn1ncc2c1CCc1c-2sc2ncnc(Nc3ccc(OCc4cccc(F)c4)c(Cl)c3)c12 [Example 260, 3-{2-[bis(2-methoxyethyl)amino]ethyl}-N-{3-chloro-4-[(3-fluorobenzyl)oxy]phenyl}-4,5-dihydro-3H-pyrimido[5′,4′:4,5]thieno[2,3-e]indazol-6-amine] | ≤ 50 µM | ≤ 5 µM |
| Fc1cccc(COc2ccc(Nc3ncnc4sc5c(c34)CCc3c-5cnn3CCCN3CCCC3)cc2Cl)c1 [Example 272] | ≤ 5 µM | ≤ 1 µM |
| Fc1cccc(COc2ccc(Nc3ncnc4sc5c(c34)CCc3n[nH]cc3-5)cc2Cl)c1 [Example 74, N-{3-chloro-4-[(3-fluorobenzyl)oxy]phenyl}-4,5-dihydro-2H-pyrimido[5′,4′:4,5]thieno[2,3-e]indazol-6-amine] | ≤ 5 µM | ≤ 1 µM |
| OCCN(CCO)C[C@@H](O)Cn1ncc2c1CCc1c-2sc2ncnc(Nc3ccc(OCc4cccc(F)c4)c(Cl)c3)c12 [Example 172, (2R)-1-[bis(2-hydroxyethyl)amino]-3-[6-({3-chloro-4-[(3-fluorobenzyl)oxy]phenyl}amino)-4,5-dihydro-3H-pyrimido[5′,4′:4,5]thieno[2,3-e]indazol-3-yl]propan-2-ol trifluoroacetate (salt)] | ≤ 50 µM | ≤ 1 µM |
| Fc1cccc(COc2ccc(Nc3ncnc4sc5c(c34)CCc3nn(CC4CCNCC4)cc3-5)cc2Cl)c1 [Example 232, N-{3-chloro-4-[(3-fluorobenzyl)oxy]phenyl}-2-(piperidin-4-ylmethyl)-4,5-dihydro-2H-pyrimido[5′,4′:4,5]thieno[2,3-e]indazol-6-amine] | ≤ 5 µM | ≤ 1 µM |
| CN(C)C(=O)Cn1cc2c(n1)CCc1c-2sc2ncnc(Nc3ccc(OCc4cccc(F)c4)c(Cl)c3)c12 [Example 184, 2-[6-({3-chloro-4-[(3-fluorobenzyl)oxy]phenyl}amino)-4,5-dihydro-2H-pyrimido[5′,4′:4,5]thieno[2,3-e]indazol-2-yl]-N,N-dimethylacetamide] | ≤ 5 µM | ≤ 1 µM |
| CN(C)[C@H]1CCN(CCn2cc3c(n2)CCc2c-3sc3ncnc(Nc4ccc(OCc5cccc(F)c5)c(Cl)c4)c23)C1 [Example 58, N-{3-chloro-4-[(3-fluorobenzyl)oxy]phenyl}-2-{2-[(3S)-3-(dimethylamino)pyrrolidin 1-yl]ethyl}-4,5-dihydro-2H-pyrimido[5′,4′:4,5]thieno[2,3-e]indazol-6-amine] | ≤ 5 µM | ≤ 1 µM |
| Fc1ccc(Nc2ncnc3sc4c(c23)CCc2nn(CCN3CCCCC3)cc2-4)cc1Cl [Example 11, N-(3-chloro-4-fluorophenyl)-2-(2-piperidin-1-ylethyl)-4,5-dihydro-2H-pyrimido[5′,4′:4,5]thieno[2,3-e]indazol-6-amine] | ≤ 5 µM | ≤ 5 µM |
| CN1CCN(CC(=O)N2CCC(n3cc4c(n3)CCc3c-4sc4ncnc(Nc5ccc(OCc6cccc(F)c6)c(Cl)c5)c34)CC2)CC1 [Example 224, N-{3-chloro-4-[(3-fluorobenzyl)oxy]phenyl}-2-{1-[(4-methylpiperazin-1-yl)acetyl]piperidin-4-yl}-4,5-dihydro-2H-pyrimido[5′,4′:4,5]thieno[2,3-e]indazol-6-amine] | ≤ 5 µM | ≤ 1 µM |
